Key:
[1] = Clearance in mouse at 3 mg/kg, iv; format: ADME, organism-based; conditions: in vivo
[2] = target: Cytochrome P450 2D6 (Homo sapiens, UniProt P10635); experiment: Inhibition of CYP2D6 (unknown origin); format: ADME
[3] = target: T1, Toll-like receptor 7 (Homo sapiens, UniProt Q9NYK1); experiment: Antagonist activity at TLR7 in human PBMC cells assessed as reduction in IFN alpha measured after 20 hrs by AlphaLISA assay; format: cell-based
T1 sequence (Q9NYK1 whole entry): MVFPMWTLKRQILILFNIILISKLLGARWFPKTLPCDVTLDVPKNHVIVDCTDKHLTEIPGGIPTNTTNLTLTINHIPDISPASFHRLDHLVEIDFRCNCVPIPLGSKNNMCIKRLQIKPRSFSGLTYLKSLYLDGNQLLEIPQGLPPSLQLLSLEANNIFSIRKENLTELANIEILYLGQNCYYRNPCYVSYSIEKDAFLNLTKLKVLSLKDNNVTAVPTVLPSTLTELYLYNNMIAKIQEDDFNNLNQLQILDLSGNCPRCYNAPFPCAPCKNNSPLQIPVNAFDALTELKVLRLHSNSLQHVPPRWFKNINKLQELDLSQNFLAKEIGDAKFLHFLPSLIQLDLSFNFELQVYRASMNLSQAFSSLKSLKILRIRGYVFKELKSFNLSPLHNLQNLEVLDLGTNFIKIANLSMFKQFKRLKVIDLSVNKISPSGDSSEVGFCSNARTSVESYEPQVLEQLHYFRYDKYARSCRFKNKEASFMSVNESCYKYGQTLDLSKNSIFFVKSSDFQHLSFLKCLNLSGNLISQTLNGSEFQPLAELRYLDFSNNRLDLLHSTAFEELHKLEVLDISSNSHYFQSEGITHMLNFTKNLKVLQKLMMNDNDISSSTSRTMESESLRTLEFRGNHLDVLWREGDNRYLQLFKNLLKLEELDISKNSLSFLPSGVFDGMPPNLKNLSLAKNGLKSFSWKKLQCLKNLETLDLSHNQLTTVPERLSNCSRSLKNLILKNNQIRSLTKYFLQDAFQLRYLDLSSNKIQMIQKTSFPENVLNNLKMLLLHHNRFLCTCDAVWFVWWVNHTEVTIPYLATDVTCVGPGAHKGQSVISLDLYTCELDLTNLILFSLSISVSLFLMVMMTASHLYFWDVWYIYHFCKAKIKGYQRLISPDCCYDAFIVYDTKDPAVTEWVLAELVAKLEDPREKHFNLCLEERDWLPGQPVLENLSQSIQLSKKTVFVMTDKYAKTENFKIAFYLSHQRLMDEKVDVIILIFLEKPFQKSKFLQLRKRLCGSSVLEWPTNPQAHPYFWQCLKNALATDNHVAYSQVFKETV

[4] = target: T2, Toll-like receptor 7 (Mus musculus, UniProt P58681); experiment: Antagonist activity at TLR7 in mouse Splenocyte assessed as reduction in IFN-alpha level measured after 20 hrs by Spectramax M5 method; format: cell-based
T2 sequence (P58681 whole entry): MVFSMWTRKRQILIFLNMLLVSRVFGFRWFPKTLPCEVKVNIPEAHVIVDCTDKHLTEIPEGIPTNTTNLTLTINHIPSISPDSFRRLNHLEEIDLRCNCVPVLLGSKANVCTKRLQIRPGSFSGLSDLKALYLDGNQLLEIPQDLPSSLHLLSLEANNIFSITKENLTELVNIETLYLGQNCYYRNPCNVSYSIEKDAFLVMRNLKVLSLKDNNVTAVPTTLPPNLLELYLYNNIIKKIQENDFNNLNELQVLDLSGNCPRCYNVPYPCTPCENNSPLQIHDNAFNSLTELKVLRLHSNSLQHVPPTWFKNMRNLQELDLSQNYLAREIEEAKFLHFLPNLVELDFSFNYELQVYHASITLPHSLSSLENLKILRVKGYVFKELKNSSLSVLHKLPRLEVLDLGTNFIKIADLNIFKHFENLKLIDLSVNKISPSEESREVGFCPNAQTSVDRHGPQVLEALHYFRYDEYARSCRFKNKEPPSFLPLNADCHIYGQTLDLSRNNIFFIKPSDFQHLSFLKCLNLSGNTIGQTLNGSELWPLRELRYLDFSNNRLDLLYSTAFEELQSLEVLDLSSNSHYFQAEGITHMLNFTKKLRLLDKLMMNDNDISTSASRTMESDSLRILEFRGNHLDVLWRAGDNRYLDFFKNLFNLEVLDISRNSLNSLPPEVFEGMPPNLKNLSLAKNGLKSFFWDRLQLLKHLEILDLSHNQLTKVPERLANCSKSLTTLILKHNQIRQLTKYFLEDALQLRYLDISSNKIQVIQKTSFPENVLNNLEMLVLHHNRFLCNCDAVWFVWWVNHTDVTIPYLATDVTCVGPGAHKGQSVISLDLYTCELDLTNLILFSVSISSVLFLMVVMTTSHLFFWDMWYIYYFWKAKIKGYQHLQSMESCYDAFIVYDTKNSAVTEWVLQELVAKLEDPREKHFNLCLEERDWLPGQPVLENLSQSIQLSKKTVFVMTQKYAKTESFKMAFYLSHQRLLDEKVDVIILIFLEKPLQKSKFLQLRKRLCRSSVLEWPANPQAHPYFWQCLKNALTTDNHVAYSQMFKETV

[5] = AUC in mouse at 1 mg/ml, iv; format: ADME; design: dose 1 mg/ml, route iv; conditions: in vivo
[6] = MRT in mouse at 1 mg/ml, po or iv; format: ADME, organism-based; conditions: in vivo
[7] = Cmax in mouse at 1 mg/ml, po; format: ADME; design: dose 1 mg/ml, route po; conditions: in vivo
[8] = AUC in mouse at 1 mg/ml, po; format: ADME; design: dose 1 mg/ml, route po; conditions: in vivo
[9] = Oral bioavailability in mouse at 1 mg/ml; format: ADME, organism-based; conditions: in vivo
[10] = Volume of distribution at steady state in rat at 1 mg/ml, po or iv; format: ADME, organism-based; conditions: in vivo
[11] = AUC in rat at 1 mg/ml, iv; format: ADME; design: dose 1 mg/ml, route iv; conditions: in vivo
[12] = Cmax in rat at 1 mg/ml, po; format: ADME; design: dose 1 mg/ml, route po; conditions: in vivo
[13] = AUC in rat at 1 mg/ml, po; format: ADME; design: dose 1 mg/ml, route po; conditions: in vivo

Chain of Cytochrome P450 2D6 (P10635 whole entry): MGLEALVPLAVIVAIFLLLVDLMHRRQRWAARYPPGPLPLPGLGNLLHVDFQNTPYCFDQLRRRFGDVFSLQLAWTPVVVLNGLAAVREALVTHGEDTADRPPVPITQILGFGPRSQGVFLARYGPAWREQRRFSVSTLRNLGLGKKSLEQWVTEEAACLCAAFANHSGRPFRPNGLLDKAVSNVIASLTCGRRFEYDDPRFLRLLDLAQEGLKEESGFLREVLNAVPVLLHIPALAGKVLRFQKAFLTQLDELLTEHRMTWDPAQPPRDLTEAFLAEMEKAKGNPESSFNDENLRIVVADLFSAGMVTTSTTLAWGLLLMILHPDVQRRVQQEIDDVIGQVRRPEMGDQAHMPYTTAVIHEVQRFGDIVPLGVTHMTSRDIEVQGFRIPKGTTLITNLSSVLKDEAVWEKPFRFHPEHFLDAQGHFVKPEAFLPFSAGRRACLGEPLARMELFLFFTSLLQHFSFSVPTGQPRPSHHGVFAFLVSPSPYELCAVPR

SMILES	clearance [1] [mL/min/kg]	IC50 [2] [nM]	IC50 [3] [nM]	IC50 [4] [nM]	AUC [5] [µM·h]	MRT [6] [h]	Cmax [7] [nM]	AUC [8] [µM·h]	bioavailability [9] [%]	Vdss [10] [L/kg]	AUC [11] [µM·h]	Cmax [12] [nM]	AUC [13] [µM·h]
Cc1cc(N2CCc3c(c(C)nn3CC34CCC(N)(CC3)CC4)C2)c2cnn(C)c2n1	24	> 25000	20	74									
CCNCC(=O)NC12CCC(Cn3nc(C)c4c3CCN(c3cc(C)nc5c3cnn5C)C4)(CC1)CC2			17		9.28	2.4	515	4.63	10	3	1.78	48	0.618
Cc1cc(N2CCc3c(c(C)nn3CC34CCC(NC(=O)[C@@H]5COCCN5)(CC3)CC4)C2)c2cnn(C)c2n1 [MHV-370]				9	5.67	1	1860	9.16	32	1.3	1.78	282	2.82
